Read-outs that look alike come from different tables or passages of the source.

`C[C@@H]1CS(=O)(=O)CCC=CCc2cccc(c2)C[C@@H]([C@@H]2C[C@@H](C)C(=O)O2)NC1=O` gave a ring closure, yield of all isomers (from C=CCCS(=O)(=O)C[C@@H](C)C(=O)N[C@@H](Cc1cccc(CC=C)c1)[C@@H]1C[C@@H](C)C(=O)O1, rcm bond, benzylidene(1,3-dimesitylimidazolidin-2-ylidene)(tricyclohexylphosphine)ruthenium dichloride (Grubbs II), dichloromethane, 60.0 °C, 2.5 h) of 74.7%.

Consider `CCCCNC(=O)[C@H](C)C[C@H](O)[C@@H]1Cc2cccc(c2)OCCCCC(=O)N[C@@H](C)C(=O)N1` (relative stereo), for which, for the setting “from CCCCNC(=O)[C@H](C)C[C@H](O)[C@H](Cc1cccc(OCCCCC(=O)O)c1)NC(=O)[C@H](C)N, amide bond, BOP, diisopropylethylamine, DMF, 7.1 mM, 25.0 °C, 16.0 h”, the ring closure, yield of all isomers came to 1.7%.

For the origin of these results see patent US20080070885.
